Read-outs that look alike come from different tables or passages of the source.
Tests used:
[1] = test system: P. falciparum 3D7 parasites; assay: P. falciparum growth inhibition assay, 2-cycle (120 h treatment), delayed-death screen and dose-response; assay type: cell-based, Plasmodium falciparum
[2] = test system: P. falciparum 3D7 parasites; assay: P. falciparum growth inhibition assay, 1-cycle (72 h treatment), SYBR DNA staining (library screen at 2 μg/mL and dose-response); assay type: cell-based, Plasmodium falciparum
[3] = test system: T. gondii RH strain (RH-Tub-eYFP) tachyzoites; assay: microbe, parasite or virus in culture; assay type: cell-based, Toxoplasma gondii; conditions: 72 h; for percent parasite growth at 2 µg/mL: Toxoplasma gondii
[4] = P. falciparum, 120 h, screen at 2 μg/mL, replicate 1
[5] = P. falciparum, 120 h, screen at 2 μg/mL, replicate 2
[6] = P. falciparum, 72 h, screen at 2 μg/mL, replicate 1
[7] = P. falciparum, 72 h, screen at 2 μg/mL, replicate 2
[8] = T. gondii, screen at 2 μg/mL, replicate 1
[9] = T. gondii, screen at 2 μg/mL, replicate 2
[10] = Plasmodium falciparum, 3D7, 120 h, P. falciparum, 120 h, parasite screen 2 μg/mL, % growth, replicate 1, read-out: Pf_120h_%Growth_Rep1
[11] = Plasmodium falciparum, 3D7, 120 h, P. falciparum, 120 h, parasite screen 2 μg/mL, % growth, replicate 2, read-out: Pf_120h_%Growth_Rep2
[12] = Plasmodium falciparum, 3D7, 72 h, P. falciparum, 72 h, parasite screen 2 μg/mL, % growth, replicate 1, read-out: Pf_72h_%Growth_Rep1
[13] = Plasmodium falciparum, 3D7, 72 h, P. falciparum, 72 h, parasite screen 2 μg/mL, % growth, replicate 2, read-out: Pf_72h_%Growth_Rep2
[14] = T. gondii, parasite screen 2 μg/mL, % growth, replicate 1, read-out: Tg_72h_%Growth_Rep1
[15] = T. gondii, parasite screen 2 μg/mL, % growth, replicate 2, read-out: Tg_72h_%Growth_Rep2
[16] = Plasmodium falciparum, 3D7, P. falciparum, 120 h, parasite screen 2 μg/mL, % growth, replicate 1, read-out: Pf_120h_%Growth_Rep1
[17] = Plasmodium falciparum, 3D7, P. falciparum, 120 h, parasite screen 2 μg/mL, % growth, replicate 2, read-out: Pf_120h_%Growth_Rep2
[18] = Plasmodium falciparum, 3D7, P. falciparum, 72 h, parasite screen 2 μg/mL, % growth, replicate 1, read-out: Pf_72h_%Growth_Rep1
[19] = Plasmodium falciparum, 3D7, P. falciparum, 72 h, parasite screen 2 μg/mL, % growth, replicate 2, read-out: Pf_72h_%Growth_Rep2

## O=C1C=CC(=O)c2c(O)cccc21 [BIA-J1739]
[1]; P. falciparum 3D7, 120 h, library screen at 2 μg/mL, % growth, replicate 1
  Pf_120h_%Growth_Rep1: 84.54%
[1]; P. falciparum 3D7, 120 h, library screen at 2 μg/mL, % growth, replicate 2
  Pf_120h_%Growth_Rep2: 95.25%
[2]; P. falciparum 3D7, 72 h, library screen at 2 μg/mL, % growth, replicate 1
  Pf_72h_%Growth_Rep1: 80.59%
[2]; P. falciparum 3D7, 72 h, library screen at 2 μg/mL, % growth, replicate 2
  Pf_72h_%Growth_Rep2: 97.69%
[3]; T. gondii RH, library screen at 2 μg/mL, % growth, replicate 1
  Tg_72h_%Growth_Rep1: 123.29%
[3]; T. gondii RH, library screen at 2 μg/mL, % growth, replicate 2
  Tg_72h_%Growth_Rep2: 97.98%

## COc1cc(=O)oc(/C=C/C=C/C=C/C(C)=C/[C@@]2(C)O[C@H](C)[C@](C)(O)[C@H]2O)c1C [Citreoviridin]
[1]; [4]
  Pf_120h_%Growth_Rep1: 141.81%
[1]; [5]
  Pf_120h_%Growth_Rep2: 93.96%
[2]; [6]
  Pf_72h_%Growth_Rep1: 92.20%
[2]; [7]
  Pf_72h_%Growth_Rep2: 86.47%
[3]; [8]
  Tg_72h_%Growth_Rep1: 86.37%
[3]; [9]
  Tg_72h_%Growth_Rep2: 89.97%

## O=C1C=C2C=C[C@@H]3C[C@@]2(O1)[C@H]1CCCCN31 [Securinine]
[1]; [10]
  activity at 2 µg/mL: 14.2%
[1]; [11]
  activity at 2 µg/mL: 10.7%
[2]; [12]
  activity at 2 µg/mL: 19.3%
[2]; [13]
  activity at 2 µg/mL: 10.7%
[3]; [14]
  percent parasite growth at 2 µg/mL: 46.1%
[3]; [15]
  percent parasite growth at 2 µg/mL: 60.2%

## CCCC[C@]1([C@H](/C=C/C(C)=C/C(=O)O)OC(=O)CCC(=O)O)CC[C@]2(CC[C@H](C)[C@@H](C/C=C(C)/C=C/[C@H](O)[C@@H](C)/C=C/C(=O)O)O2)O1 [Reveromycin B]
[1]; [10]
  activity at 2 µg/mL: 78.2%
[1]; [11]
  activity at 2 µg/mL: 133%
[2]; [12]
  activity at 2 µg/mL: 89%
[2]; [13]
  activity at 2 µg/mL: 114%
[3]; [14]
  percent parasite growth at 2 µg/mL: 139%
[3]; [15]
  percent parasite growth at 2 µg/mL: 87.7%

## O=C(O)c1ccc[nH]1 [Pyrrole-2-carboxylic acid]
[1]; [16]
  activity at 2 µg/mL: 88.6%
[1]; [17]
  activity at 2 µg/mL: 136%
[2]; [18]
  activity at 2 µg/mL: 86.7%
[2]; [19]
  activity at 2 µg/mL: 115%
[3]; [14]
  percent parasite growth at 2 µg/mL: 130%
[3]; [15]
  percent parasite growth at 2 µg/mL: 86.8%

## CO[C@H]1[C@H](O)[C@@H](O)[C@H](n2c3c(Cl)cccc3c3c4c(c5c6cccc(Cl)c6[nH]c5c32)C(=O)NC4=O)O[C@@H]1CO [Rebeccamycin]
[1]; P. falciparum, growth at 72 h / growth at 120 h, 2 μg/mL
  3) Fold change (72 h/120 h): 1.2
[1]; Plasmodium falciparum, 3D7; P. falciparum, 2 μg/mL, 120 h; read-out: 2) Growth (%) at 120 h
  activity at 2 µg/mL: 18.4%
[1]; [16]
  activity at 2 µg/mL: 22.3%
[1]; [17]
  activity at 2 µg/mL: 14.5%
[2]; Plasmodium falciparum, 3D7; P. falciparum, 2 μg/mL, 72 h; read-out: 1) Growth (%) at 72 h
  activity at 2 µg/mL: 21.6%
[2]; [18]
  activity at 2 µg/mL: 22.6%
[2]; [19]
  activity at 2 µg/mL: 20.5%
[3]; [14]
  percent parasite growth at 2 µg/mL: 35.4%
[3]; [15]
  percent parasite growth at 2 µg/mL: 70.9%

## C/C=C\C=C\[C@@H]1O[C@](O)([C@H](CC)C(=O)NC/C=C/C=C(\C)[C@@H](OC)[C@@H](C)[C@H]2C[C@@H](O)[C@@H](/C=C/C=C/C=C/C(=O)O)O2)[C@H](O)[C@H](O)C1(C)C [A 83016F]
[1]; library screen at 2 μg/mL, 120 h, % growth, replicate 1
  Pf_120h_%Growth_Rep1: 83.40%
[1]; library screen at 2 μg/mL, 120 h, % growth, replicate 2
  Pf_120h_%Growth_Rep2: 76.05%
[2]; library screen at 2 μg/mL, 72 h, % growth, replicate 1
  Pf_72h_%Growth_Rep1: 83.31%
[2]; library screen at 2 μg/mL, 72 h, % growth, replicate 2
  Pf_72h_%Growth_Rep2: 85.46%
[3]; library screen at 2 μg/mL, % growth, replicate 1
  Tg_72h_%Growth_Rep1: 147.54%
[3]; library screen at 2 μg/mL, % growth, replicate 2
  Tg_72h_%Growth_Rep2: 91.91%

## CC(=O)OC[C@@H](NC(=O)C(Cl)Cl)[C@H](O)c1ccc([N+](=O)[O-])cc1 [Chloramphenicol acetate]
[1]; [4]
  Pf_120h_%Growth_Rep1: 100.35%
[1]; [5]
  Pf_120h_%Growth_Rep2: 90.22%
[2]; [6]
  Pf_72h_%Growth_Rep1: 90.71%
[2]; [7]
  Pf_72h_%Growth_Rep2: 92.14%
[3]; [8]
  Tg_72h_%Growth_Rep1: 132.16%
[3]; [9]
  Tg_72h_%Growth_Rep2: 92.80%

## CC(=O)Nc1c2sscc-2n(C)c1=O [Thiolutin]
[1]; Plasmodium falciparum, 3D7, P. falciparum, 120 h, screen at 2 μg/mL, replicate 1, read-out: Pf_120h_%Growth_Rep1
  activity at 2 µg/mL: 42.4%
[1]; Plasmodium falciparum, 3D7, P. falciparum, 120 h, screen at 2 μg/mL, replicate 2, read-out: Pf_120h_%Growth_Rep2
  activity at 2 µg/mL: 15.5%
[2]; Plasmodium falciparum, 3D7, P. falciparum, 72 h, screen at 2 μg/mL, replicate 1, read-out: Pf_72h_%Growth_Rep1
  activity at 2 µg/mL: 4.59%
[2]; Plasmodium falciparum, 3D7, P. falciparum, 72 h, screen at 2 μg/mL, replicate 2, read-out: Pf_72h_%Growth_Rep2
  activity at 2 µg/mL: 0.05%
[3]; T. gondii, screen at 2 μg/mL, replicate 1, read-out: Tg_72h_%Growth_Rep1
  percent parasite growth at 2 µg/mL: 2.01%
[3]; T. gondii, screen at 2 μg/mL, replicate 2, read-out: Tg_72h_%Growth_Rep2
  percent parasite growth at 2 µg/mL: 1.94%
